According to US9290688B2, “Alkaline microbial enhanced oil recovery” (GEO FOSSIL FUELS, LLC, priority 2011, dated 2016):

Test system: Rhodococcus rhodochrous ATCC #53968
Assay: Digestion of Red River crude oil with and without beta-oxidation inhibitors; GC of methyl esters of extracted organic acids
Type: cell-based
Conditions: for Total GC (all peaks integrated by the GC integrator): 0.31 g oil sample; for conv. To umoles FA: approximately 1.0 micromoles per 100 area units; for Cal. AN (calculated acid number): estimated from GC areas
Method: An oil degrading microorganism was used to evaluate the use of chemical inhibitors to slow the utilization of hydrocarbons in petroleum. In a non-limiting example, three different chemical compounds that have been reported to inhibit beta-oxidation were tested in oil and culture medium on a petroleum sample with a strain of Rhodococcus rhodochrous ATCC #53968 in m9 minimal medium. To test the ability of each chemical inhibitor to slow the consumption of fatty acids a culture of bacteria was grown on a crude oil sample for a period of three days with crude petroleum oil as the only carbon source. Four separate flasks were set up, each with an oil to aqueous media ratio of 1 to 5 (10 ml of crude oil to 50 ml of culture medium). Each of the three chemical inhibitors was added to a separate flask and a fourth flask was allowed to digest without the addition of a chemical inhibitor as a control. The flasks were shaken at a room temperature of about 25° C. under aerobic conditions. The progress of the microbial digestion was monitored by the optical density at 600 nm and by visual inspection of the brown oil color in the aqueous phase. Three days after the addition of inhibitors, or a total of six days of incubation with oil, a small sample of oil (0.31 g) was removed. A second sample of the same size was remover after another 6 days. The organic acids were extracted from each oil sample with 1% NaOH in 70% ethanol. The samples were shaken vigorously for one minute. The aqueous extract material was then extracted with hexane to remove any trace of oil. The samples of extracted organic acids were then dried under vacuum and converted to methyl esters with BF3 in methanol.
The mixtures of methyl esters were analyzed by GC (gas chromatography) using a HP (Hewlett Packard) 5890 GC with an Agilent Technologies capillary column, HP-5 (crosslinked 5% PH) ME Siloxane 0.25 micrometer coating with a length of 30 meter and a column ID (internal diameter) of 0.32 mm. Helium was used as a carrier gas. Detection was by a FID detector and integration of peak areas was done with a HP 3396 integrator. The temperature program held an initial temperature of 40° C. for 1.0 minutes then increased at 15 degrees per minute to 280° C., and finally held at a temperature of 280° C. for 5 minutes. To quantify the amount of organic acids extracted by this procedure, a stock solution of 2-bromooctanoate and 2-bromohexadecanoate were added to a sample of undigested Red River crude petroleum oil and then extracted by the same procedure as the bio-digested oil samples. The average area for theses two organic acids was used to estimate the amount of organic acids in micromoles per area unit determined by the GC integrator. The number was calculated to be approximately 1.0 micromoles per 100 area units. The area units for each of the GC peaks are list in Table 2. This number was used to estimate the micromoles organic acids extracted from the oil. This estimate was used to calculate the number of mg of KOH that equaled the number of micromoles of organic acid estimated. This number is listed on the last row in Table 2 as the calculated AN (acid number) for each digestion experiment. These estimated numbers are only based on organic acids that are hydrophobic enough to stay in the oil phase and not move into the aqueous phase. Organic acids measured include the carboxylic acids made by the bacteria and that have been secreted out of the cell and have migrated back to the oil phase. They are also hydrocarbons that are small enough to be extracted into the ethanol aqueous extraction solvent. This number is likely to be less than the total acid number (TAN), a measure often used to evaluate crude petroleum for amenability to alkaline waterflooding.
The earlier eluting peaks are believed to represent methyl ester of lighter hydrocarbon carboxylic acids and the later eluting peaks are believed to represent methyl ester of the heavier organic acids. […]

[1] = 12 days, listed as acrylic acid

With `C=CC(=O)O` [AA, acrylic acid] the “GC peak area, retention time 4.5” value (6 days) was 0.242 area units, the “GC peak area, retention time 5.6” value (6 days) was 0.948 area units and the “GC peak area, retention time 6.6” value (6 days) was 2.856 area units. The “GC peak area, retention time 7.6” value (6 days) was 2.724 area units, the “GC peak area, retention time 8.2” value (6 days) was 0.703 area units and the “GC peak area, retention time 8.5” value (6 days) was 1.907 area units. The “GC peak area, retention time 9.4” value (6 days) was 1.575 area units, the “GC peak area, retention time 10.2” value (6 days) was 1.591 area units and the “GC peak area, retention time 11” value (6 days) was 2.134 area units. For the same molecule, the “GC peak area, retention time 11.5” value (6 days) was 2.596 area units, the “GC peak area, retention time 11.7” value (6 days) was 2.416 area units and the “GC peak area, retention time 12.3” value (6 days) was 1.097 area units. The “GC peak area, retention time 12.5” value (6 days) was 4.385 area units, the “GC peak area, retention time 13” value (6 days) was 0.521 area units and the “GC peak area, retention time 13.1” value (6 days) was 1.769 area units. For the same molecule, the “GC peak area, retention time 13.2” value (6 days) was 3.486 area units, the “GC peak area, retention time 13.4” value (6 days) was 1.122 area units and the “GC peak area, retention time 13.6” value (6 days) was 0.783 area units. The “GC peak area, retention time 13.8” value (6 days) was 2.448 area units, the “GC peak area, retention time 14” value (6 days) was 0.447 area units and the “GC peak area, retention time 14.2” value (6 days) was 0.78 area units. The “SubTotal peak area, later peaks eluting after 13 minutes” value (“SubTotal peak area, later peaks eluting” below) (6 days) was 11.356 area units, the “SubTotal peak area, peaks eluting before 13 minutes” value (6 days) was 25.173 area units and the “Total GC area For 1 ml” value (6 days) was 175. For the same molecule, the “Total of all selected peaks” value (6 days) was 36.529 area units, the “Total GC (all peaks integrated by the GC integrator)” value (6 days) was 54.17 area units and the “conv. To umoles FA” value (6 days) was 1.75 µmol. The “Cal. AN (calculated acid number)” value (6 days) was 0.098 mg of KOH, the “GC peak area, retention time 4.2” value (12 days) was 0.58 area units and the “GC peak area, retention time 4.5” value (12 days) was 1.051 area units. For the same molecule, the “GC peak area, retention time 4.6” value (12 days) was 1.519 area units, the “GC peak area, retention time 5.6” value (12 days) was 2.754 area units and the “GC peak area, retention time 6.6” value (12 days) was 7.835 area units. The “GC peak area, retention time 7.6” value (12 days) was 5.761 area units, the “GC peak area, retention time 8.2” value (12 days) was 0.558 area units and the “GC peak area, retention time 8.5” value (12 days) was 3.369 area units. The “GC peak area, retention time 9.4” value (12 days) was 0.747 area units, the “GC peak area, retention time 10.2” value (12 days) was 0.588 area units and the “GC peak area, retention time 11” value (12 days) was 1.736 area units. The “GC peak area, retention time 11.5” value (12 days) was 2.968 area units, the “GC peak area, retention time 11.7” value (12 days) was 3.716 area units and the “GC peak area, retention time 12.3” value (12 days) was 2.722 area units. The “GC peak area, retention time 12.5” value (12 days) was 6.208 area units, the “GC peak area, retention time 12.7” value (12 days) was 1.6421 area units and the “GC peak area, retention time 13” value (12 days) was 1.99 area units. For the same molecule, the “GC peak area, retention time 13.1” value (12 days) was 2.209 area units, the “GC peak area, retention time 13.2” value (12 days) was 4.801 area units and the “GC peak area, retention time 13.4” value (12 days) was 3.72 area units. For the same molecule, the “GC peak area, retention time 13.6” value (12 days) was 2.005 area units, the “GC peak area, retention time 13.8” value (12 days) was 2.512 area units and the “GC peak area, retention time 14” value (12 days) was 2.548 area units. For the same molecule, the “GC peak area, retention time 14.2” value (12 days) was 2.779 area units, the “SubTotal peak area, later peaks eluting” value (12 days) was 22.564 area units and the “SubTotal peak area, peaks eluting before 13 minutes” value (12 days) was 43.754 area units. For the same molecule, the “Total GC area For 1 ml” value (12 days) was 291, the “Total of all selected peaks” value (12 days) was 66.318 area units and the “Total GC (all peaks integrated by the GC integrator)” value (12 days) was 90.15 area units. For the same molecule, the “conv. To umoles FA” value (12 days) was 2.91 µmol, the “Cal. AN (calculated acid number)” value (12 days) was 0.16 mg of KOH and the “SubTotal peak area, later peaks eluting” value [1] was 22.5 area units. For the same molecule, the “SubTotal peak area, peaks eluting before 13 minutes” value [1] was 43.7 area units.
`CCCCCCC(Br)C(=O)O` (centres unmarked) [Br C8, 2-bromooctanoic acid] was tested, and the “GC peak area, retention time 4.5” value (6 days) was 0.351 area units, the “GC peak area, retention time 5.6” value (6 days) was 0.835 area units and the “GC peak area, retention time 6.6” value (6 days) was 2.783 area units. The “GC peak area, retention time 7.6” value (6 days) was 2.476 area units, the “GC peak area, retention time 8.2” value (6 days) was 0.682 area units and the “GC peak area, retention time 8.5” value (6 days) was 1.443 area units. The “GC peak area, retention time 9.4” value (6 days) was 1.146 area units, the “GC peak area, retention time 10.2” value (6 days) was 1.618 area units and the “GC peak area, retention time 11” value (6 days) was 2.608 area units. For the same molecule, the “GC peak area, retention time 11.5” value (6 days) was 1.69 area units, the “GC peak area, retention time 11.7” value (6 days) was 3.004 area units and the “GC peak area, retention time 12.3” value (6 days) was 1.604 area units. For the same molecule, the “GC peak area, retention time 12.5” value (6 days) was 4.566 area units, the “GC peak area, retention time 12.7” value (6 days) was 1.145 area units and the “GC peak area, retention time 13” value (6 days) was 1.421 area units. The “GC peak area, retention time 13.1” value (6 days) was 2.61 area units, the “GC peak area, retention time 13.2” value (6 days) was 3.047 area units and the “GC peak area, retention time 13.4” value (6 days) was 2.196 area units. For the same molecule, the “GC peak area, retention time 13.6” value (6 days) was 1.314 area units, the “GC peak area, retention time 13.8” value (6 days) was 3.341 area units and the “GC peak area, retention time 14” value (6 days) was 1.661 area units. For the same molecule, the “GC peak area, retention time 14.2” value (6 days) was 0.963 area units, the “SubTotal peak area, later peaks eluting” value (6 days) was 16.553 area units and the “SubTotal peak area, peaks eluting before 13 minutes” value (6 days) was 25.951 area units. For the same molecule, the “Total GC area For 1 ml” value (6 days) was 250, the “Total of all selected peaks” value (6 days) was 42.504 area units and the “Total GC (all peaks integrated by the GC integrator)” value (6 days) was 77.5 area units. The “conv. To umoles FA” value (6 days) was 2.5 µmol, the “Cal. AN (calculated acid number)” value (6 days) was 0.14 mg of KOH and the “GC peak area, retention time 4.2” value (12 days) was 0.47 area units. For the same molecule, the “GC peak area, retention time 4.5” value (12 days) was 0.943 area units, the “GC peak area, retention time 5.6” value (12 days) was 1.656 area units and the “GC peak area, retention time 6.6” value (12 days) was 4.625 area units. For the same molecule, the “GC peak area, retention time 7.6” value (12 days) was 3.349 area units, the “GC peak area, retention time 8.2” value (12 days) was 0.497 area units and the “GC peak area, retention time 8.5” value (12 days) was 1.763 area units. For the same molecule, the “GC peak area, retention time 9.4” value (12 days) was 0.681 area units, the “GC peak area, retention time 10.2” value (12 days) was 0.387 area units and the “GC peak area, retention time 11” value (12 days) was 0.985 area units. The “GC peak area, retention time 11.5” value (12 days) was 3.548 area units, the “GC peak area, retention time 11.7” value (12 days) was 2.41 area units and the “GC peak area, retention time 12.3” value (12 days) was 2.973 area units. The “GC peak area, retention time 12.5” value (12 days) was 5.664 area units, the “GC peak area, retention time 13” value (12 days) was 2.785 area units and the “GC peak area, retention time 13.1” value (12 days) was 4.367 area units. For the same molecule, the “GC peak area, retention time 13.2” value (12 days) was 7.327 area units, the “GC peak area, retention time 13.4” value (12 days) was 8.161 area units and the “GC peak area, retention time 13.6” value (12 days) was 4.176 area units. For the same molecule, the “GC peak area, retention time 13.8” value (12 days) was 4.901 area units, the “GC peak area, retention time 14” value (12 days) was 4.709 area units and the “GC peak area, retention time 14.2” value (12 days) was 1.74 area units. The “SubTotal peak area, later peaks eluting” value (12 days) was 38.166 area units, the “SubTotal peak area, peaks eluting before 13 minutes” value (12 days) was 31.453 area units and the “Total GC area For 1 ml” value (12 days) was 373. The “Total of all selected peaks” value (12 days) was 69.619 area units, the “Total GC (all peaks integrated by the GC integrator)” value (12 days) was 115.7 area units and the “conv. To umoles FA” value (12 days) was 3.73 µmol. For the same molecule, the “Cal. AN (calculated acid number)” value (12 days) was 0.21 mg of KOH.
